Measured values as given in patent publication US20230240989A1, “LIPOSOMAL OZONE NANOSOLUTIONS” (priority 2021, published 2023).
Values joined by “and” are separate entries in the source; they are usually repeats but may differ in a detail not shown here. Equal values may be shown once. Read-outs that look alike come from different tables or passages of the source.

Columns and labels:
[1] = tested on: female rats of Sprague downey breed; details: skin biopsy of laparotomy incision line, group average
Text: A total of 72 skin biopsies of 72 animals from the abdomen were examined in the experimental groups in the applications on the wound lips on the skin line where the incision was made; Physiological Salt Water (FTS), 1% Lidocaine, ozone-free nanosolution, 250 ppm ozone nanosolution, 500 ppm ozone nanosolution, 500 ppm ozone nanosolution+2% Lidocaine (50% blend), 1000 ppm Ozone nanosolution+2% Lidocaine (50% blend) and 2000 ppm ozone nanosolution+2% Lidocaine (50% blend). Lesions were scored and group average scores were obtained.

[2] = tested on: BALB/c 3T3 (CCL-163) cell line; details: mouse, 48 h
[3] = tested on: L-929 mouse fibroblast cell line; details: 48 h
[4] = tested on: back skin of New Zealand albino rabbits; assay: Irritation test TS EN ISO 10993-10 (injection solution); assay type: in vivo, rabbit; details: for Primary irritation score (score average): 24th-72nd hour, 1st hour not included
Text: Test material given under the title of TS EN ISO 10993-10:2010 annex A A.2,2 Liquid test materials; Liquids should be tested without dilution or by direct precipitation or, if not applicable, by diluting with physiological saline to ¼ dose, which is the usage dose in accordance with the directive that it should be tested by diluting with a suitable liquid.
Sodium lauryl sulphate (SLS) was used as a positive control and distilled water was used as a negative control.
SLS-impregnated sponge was applied to the positive control area (area no 3). The samples were covered with gauze, fixed with a bandage, and topically contacted with the back skin for 4 hours.
The primary irritation index was determined by evaluating the application areas (1±0.1) s, (24±2) s, (48±2) s, and (72±2) hours after the 4th hour application, according to the skin reaction score given in Chart 1. As stated in the standard, the 1st hour was not included in the calculation.

[5] = tested on: inner cheek pouch of Syrian hamsters; assay: Oral mucosal irritation test
Protocol: Oral mucosal irritation test was carried out considering the TS EN ISO 10993-10:2010 standard, the experimental animal used in the test is considered according to TS EN ISO 10993-2:2006 standard, the material preparation is made according to TS EN ISO 10993-12:2012 standard guidelines. The test is performed for materials intended to come into contact with oral tissue and where safety data cannot be obtained by other means.
Animals were acclimated to the environment by taking care of them as specified in TS EN ISO 10993-2:2006. Healthy young adult Syrian hamsters of both sexes, unrelated to a single strain, were used for testing. Product sample-impregnated gauze was placed in the inner cheek pouch of each animal under ketamine/Xylazine anesthesia. The exposure time was evaluated according to the rule of reflecting the actual expected use time of the material, and the sample was kept in the inner cheek pouch for 1 hour.
Test material given under the title of ISO 10993-10:2010 annex A A.2,2 Liquid test materials; Liquids were applied without dilution or by direct precipitation or, if not applicable, at a dose of 1600 ppm, which is the usage dose according to the guideline. Saline solution-impregnated absorbent gauze was used as negative control. As a positive control, HCl acid solution adjusted to pH 1.5 was used in our laboratory based on the rule that liquids with pH 2 and below are considered irritating.
The left inner cheek pouch of each animal was evaluated for the experimental sample, and the contralateral (Right) inner cheek was considered as the negative control. No material was placed into the right side inner cheek pouch, it was only washed with physiological saline and dissected at the end of the experiment.
Gauze cloth impregnated with a usage dose of 1600 ppm of the nanosolution of the invention was placed in the left inner cheek pouch of Syrian hamsters under ketamine/Xylazine anesthesia, whose inner cheeks were emptied and washed with saline. After the exposure of the subject to the sample for 1 hour, the sample was removed and the inner cheek was rinsed with saline solution, taking care not to contaminate the other cheek. Experiment (left) and control (right) inner cheek pouches were evaluated macroscopically according to chart 1. The experiment was terminated after 1 hour of contact.
According to the standard directive, the exposure time should reflect the actual expected use time of the material, but should not be less than 5 minutes. The repeated observation rating (Table 1) performed at long-term chronic exposures is summed up and divided by the total repeat application 4. Since it is a device with subacute use, the application was performed 4 times with one hour intervals. Observations of the sample applied left inner cheek were compared with the right inner cheeks (negative control) washed with saline.

[6] = tested on: back skin of New Zealand albino rabbits; assay: Skin irritation test TS EN ISO 10993-10 (barrier solution)
Text: Three healthy young New Zealand albino rabbits with a body weight of 2-3 kg were used as experimental animals.
Test material given under the title of TS EN ISO 10993-10:2010 annex A A.2,2 Liquid test materials; Liquids were applied without dilution or by direct precipitation or, if not applicable, at a dose of 1600 ppm, which is the usage dose according to the guideline. […] The sponge impregnated with the nanosolution of the invention was kept in direct contact with the sample application areas. SLS impregnated sponge was applied to the positive control area. The samples were covered with gauze, fixed with a bandage, and topically contacted with the back skin for 4 hours. The primary irritation index was determined by evaluating the application areas (1±0.1) […], and (72±2) hours after the 4th hour application, according to the skin reaction score given in Chart 1. As stated in the standard, the 1st hour was not included in the calculation.

albino guinea pigs = assay: Sensitization test, Closed Patch-Buehler method; details: per animal
[7] = left cheek (experiment), single subject

`CCN(CC)CC(=O)Nc1c(C)cccc1C` [1% lidocaine] was tested, and the “Collagen Epidermis/Dermis (%)” value [1] was 25.33 ± 2.46%, the Bleeding score ([1]; scoring out of 3) was 0.83 ± 0.54 and the Connective tissue score ([1]; scoring out of 3) was 2.67 ± 0.33. For the same compound, the Edema score ([1]; scoring out of 3) was 0.67 ± 0.33, the Inflammation score ([1]; scoring out of 3) was 2.50 ± 0.34 and the Vascular formation score ([1]; scoring out of 3) was 1.83 ± 0.17.

With `C[S+](C)[O-]` [PC, Dimethylsulfoxide] the Vitality % ([2]; 3 % v/v) was 31.25%, the “Optical density (OD) mean value 570 nm ± standard deviation (SD)” value ([2]; 10 % v/v) was 0.1 ± 0.06 and the Vitality % ([2]; 10 % v/v) was 24.37%. The “Optical density (OD) mean value 570 nm ± standard deviation (SD)” value ([2]; 30 % v/v) was 0.078 ± 0.02, the Vitality % ([3]; 10 % v/v) was 53.44% and the Vitality % ([3]; 30 % v/v) was 36.46%.

`CCCCCCCCCCCCOS(=O)(=O)[O-].[Na+]` [Positive control, Sodium lauryl sulphate] was tested, and the “Primary irritation score (score average)” value ([4]; Rabbit 1) was 2.167 ± 1.169, the “Primary irritation score (score average)” value ([4]; Rabbit 2) was 1.333 ± 1.211 and the “Primary irritation score (score average)” value ([4]; Rabbit 3) was 1.500 ± 1.049. For the same compound, the “Primary Irritation Index” value ([4]; mean of three rabbits) was 1.666, the “macroscopic examination of inner cheek mucosa” value ([5]; hamster, in vivo) was “Areas of mucosal erosion were noted” and the “Microscopic irritation score Edema” value [5, 7] was 0. For the same compound, the “Microscopic irritation score Epithelium” value [5, 7] was 3, the “Microscopic irritation score Leukocyte infiltration” value [5, 7] was 2 (Mild (26 to 50)) and the “Microscopic irritation score Vascular congestion” value [5, 7] was 1. The “Primary Irritation Score Rabbit 1” value ([6]; 24th, 48th, 72nd hours) was 2.167 ± 1.169, the “Primary Irritation Score Rabbit 2” value ([6]; 24th, 48th, 72nd hours) was 1.333 ± 1.2 and the “Primary Irritation Score Rabbit 3” value ([6]; 24th, 48th, 72nd hours) was 1.500 ± 1.049. For the same compound, the “Primary Irritation Index” value ([6]; three rabbits) was 1.666, the “Magnusson and Kligman Rating” value (albino guinea pigs; 24th hour after stimulation, 2020 Oct. 27) was 2 and the “Magnusson and Kligman Rating” value (albino guinea pigs; 48th hour after stimulation, 2020 Oct. 28) was 2. The “Magnusson and Kligman Rating” value (albino guinea pigs; Induction first week, application date 2020 Sep. 24, 6 h closed patch) was 1, the “Magnusson and Kligman Rating” value (albino guinea pigs; Induction first week, application date 2020 Sep. 26, 6 h closed patch) was 1 and the “Magnusson and Kligman Rating” value (albino guinea pigs; Induction first week, application date 2020 Sep. 28, 6 h closed patch) was 1. For the same compound, the “Magnusson and Kligman Rating” value (albino guinea pigs; Induction, application date 2020 Oct. 2, 6 h closed patch, sulphate) was 2 (3×) and 1 (2×), the “Magnusson and Kligman Rating” value (albino guinea pigs; Induction, application date 2020 Oct. 4, 6 h closed patch) was 2 and the “Magnusson and Kligman Rating” value (albino guinea pigs; Induction, application date 2020 Oct. 7, 6 h closed patch) was 2. The “Magnusson and Kligman Rating” value (albino guinea pigs; Induction, application date 2020 Oct. 9, 6 h closed patch, sulphate) was 2 (4×) and 3, the “Magnusson and Kligman Rating” value (albino guinea pigs; Induction, application date 2020 Oct. 12, 6 h closed patch, sulphate) was 3 (4×) and 2 and the “Magnusson and Kligman Rating” value (albino guinea pigs; Induction, application date 2020 Sep. 31, 6 h closed patch, sulphate) was 1 (4×) and 2. The “Magnusson and Kligman Rating” value (albino guinea pigs; Stimulation application, 2020 Oct. 26, sulphate) was 2 (4×) and 3.
